From US10835533B2, “1 -((3S,4R)-4-(3-fluorophenyl)-1-(2-methoxyethyl)pyrrolidin-3-yl)-3-(4-methyl-3-(2-methylpyrimidin-5-yl)-1-phenyl-1H-pyrazol-5-yl)urea as a TrkA kinase inhibitor” (Array BioPharma Inc., priority 2014, dated 2020)

Tests used:
[1] = Male Sprague Dawley rat pharmacokinetics, oral 10 mg/kg (Example D); type: in vivo; settings: for Plasma:Brain ratio: Rat PO 10 mg/kg, plasma and brain collected 2 hours post dose; for Trough concentration / AUC / Cmax: Rat, oral dose 10 mg/kg, plasma; for AUC / Cmax: male, Sprague Dawley
Experimental: Each of Compound 1, Compound 2, and Compound 3 was formulated by adding the compound (dry) to 20% Trappsol® (hydroxypropyl Beta cyclodextrin; CDT, Inc.) (aq) pH 5.0 and vortexing until a homogeneous suspension (PO) or solution (IV) was achieved.
For oral dosing, rats received a single oral dose following an overnight fast. Blood was drawn from the lateral tail vein while the animal was anesthetized with 3% isoflurane balanced with O2 (0.2 mL/timepoint) into NaEDTA tubes (1.5% v/v) at the following time points: 5, 15, and 30 minutes, and 1, 2, 4, 8, 24 and 26 hours, and mixed thoroughly. Following the 24 hour blood collection, animals were redosed orally, and plasma and brain were collected 2 hours post dose for compound analysis. Brains were perefused with saline before removal, weighed and flash frozen in liquid nitrogen until analysis by LCMS/MS. Plasma was separated by centrifugation at 14,000 rpm for 10 minutes and the plasma samples were transferred to 96 well plate tubes with rubber caps and stored at −20±5° C. until analyzed.
A single 12-point calibration curve was prepared by first serially diluting (3-fold) a 40-μg/mL stock solution of Compound 1, Compound 2, and Compound 3 in DMSO to provide standard solutions. Plasma (20 μL) was then added to the extraction plate, and 2.5 μL of each standard solution was added to the naïve plasma. A stock solution of an internal standard (10.0 μL of 2.5 μg/mL in acetonitrile) subsequently was added to each standard and sample solution. Proteinaceous material was precipitated from 20 μL of plasma with the addition of 317.5 μL of acetonitrile for a total volume of 350 μL. Samples were vortex-mixed for 5 minutes and spun in an Allegra X-12R centrifuge (Beckman Coulter, Fullerton, Calif.) for 15 minutes at approximately 1,500×g at 4° C. A 100-μL aliquot of each supernatant was transferred via a 550 μL Personal Pipettor (Apricot Designs, Monrovia, Calif.) to 96-well plates and diluted 1:1 with HPLC grade water. The resulting plates were sealed with plate mats and the amount of Compound 1n the plasma was analyzed by LC-MS/MS.
The LC-MS/MS system was comprised of an HTC-PAL autosampler (Leap Technologies, Inc., Carrboro, N.C.), an HP1100 HPLC (Agilent Technologies Inc., Santa Clara, Calif.), and an API4000 triple quadrupole mass spectrometer (Applied Biosystems, Foster City, Calif.). Chromatographic retention of the analyte and internal standard was achieved using a Phenomenex® Synergi 4μ Hydro-RP 80A column (2.1×30 mm, 4 μm particle size; Phenomenex, Torrance, Calif.) in conjunction with gradient conditions using mobile phases A (10 mM ammonium acetate in aqueous 0.1% formic acid and 1% isopropyl alcohol) and B (10 mM ammonium acetate in 89.9% acetonitrile, 10% methanol, 0.1% formic acid). The total run time, including re-equilibration time, for a single injection was 3.5 minutes and the flow rate was 0.8 mL/minute. Solvent B was increased from 5 to 95% in 1.0 minute, held at 95% for 1.0 minute, and then decreased to 5% in 0.1 minute.
A single 12-point calibration curve was prepared by first serially diluting (3-fold) a 40-μg/mL stock solution of each of Compound 1, Compound 2, and Compound 3 in DMSO. Brain homogenate was prepared by adding 5.0 mL of water to conical 50 mL tubes containing brains. The contents of the tubes were homogenized using an Omni-Prep Multi Sample Homogenizer (Kennesaw, Ga.) at 22,000 RPM for 180 seconds. The homogenate (100 μL) was added to the extraction plate, and 2.5 μL each standard solution was added to the naïve brain homogenate. A stock solution of an internal standard (10.0 μL of 2.5 μg/mL in acetonitrile) subsequently was added to each standard and sample solution. Proteinaceous material was precipitated from 100 μL of […] with the addition of 237.5 μL of acetonitrile for a total volume of 350 μL. […]

[2] = molecular target: T1, cloned hERG potassium channels expressed in human embryonic kidney cells (HEK293) (Homo sapiens, UniProt Q12809); assay: FASTPatch hERG Assay (Example F); type: cell-based; settings: HEK293, QPatch HT, room temperature
T1 construct: expressed in transfected cells; host or cells: HEK293
T1 sequence (Q12809 whole entry): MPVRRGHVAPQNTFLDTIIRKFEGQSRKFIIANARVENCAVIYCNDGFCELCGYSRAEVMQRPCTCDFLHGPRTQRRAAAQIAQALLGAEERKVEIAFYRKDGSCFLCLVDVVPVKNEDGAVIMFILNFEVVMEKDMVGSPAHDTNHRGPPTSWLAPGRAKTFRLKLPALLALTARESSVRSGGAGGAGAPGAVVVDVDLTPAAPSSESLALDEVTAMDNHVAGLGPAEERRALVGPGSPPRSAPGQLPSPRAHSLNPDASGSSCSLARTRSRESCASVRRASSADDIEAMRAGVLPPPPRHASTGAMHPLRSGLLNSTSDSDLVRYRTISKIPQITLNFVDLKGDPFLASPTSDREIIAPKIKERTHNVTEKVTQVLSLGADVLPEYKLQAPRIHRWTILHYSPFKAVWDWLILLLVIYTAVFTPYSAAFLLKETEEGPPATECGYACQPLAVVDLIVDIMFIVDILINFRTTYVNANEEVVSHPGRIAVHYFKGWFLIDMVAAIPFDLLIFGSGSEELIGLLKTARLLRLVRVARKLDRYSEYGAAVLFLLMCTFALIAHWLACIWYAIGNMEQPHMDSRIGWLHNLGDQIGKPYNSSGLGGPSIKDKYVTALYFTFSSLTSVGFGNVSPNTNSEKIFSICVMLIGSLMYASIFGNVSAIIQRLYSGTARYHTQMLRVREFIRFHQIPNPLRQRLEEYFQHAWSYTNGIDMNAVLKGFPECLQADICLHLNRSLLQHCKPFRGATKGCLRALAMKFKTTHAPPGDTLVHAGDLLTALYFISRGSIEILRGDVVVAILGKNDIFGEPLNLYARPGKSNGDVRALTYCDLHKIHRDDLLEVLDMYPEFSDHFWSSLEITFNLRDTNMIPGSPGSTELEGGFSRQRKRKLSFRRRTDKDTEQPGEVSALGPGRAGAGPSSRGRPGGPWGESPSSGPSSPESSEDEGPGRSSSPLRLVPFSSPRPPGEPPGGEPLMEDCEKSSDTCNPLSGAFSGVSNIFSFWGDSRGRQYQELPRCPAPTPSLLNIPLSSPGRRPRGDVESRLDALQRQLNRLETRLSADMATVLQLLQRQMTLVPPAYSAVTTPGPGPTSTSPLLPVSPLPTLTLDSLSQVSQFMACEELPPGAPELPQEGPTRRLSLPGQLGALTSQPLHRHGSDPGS
Experimental: This assay was used to measure the effects of Compound 1, Compound 2, and Compound 3 on cloned hERG potassium channels expressed in human embryonic kidney cells (HEK293). The in vitro effects of Compound 1, Compound 2, and Compound 3 on the hERG (human ether-a-go-go-related gene) potassium channel current (a surrogate for IKr, the rapidly activating, delayed rectifier cardiac potassium current) expressed in mammalian cells were evaluated at room temperature using the QPatch HT® (Sophion Bioscience A/S, Denmark), an automatic parallel patch clamp system. The test article was evaluated at 0.3, 1, 3, 10, 30 and 100 μM with each concentration tested in three or more cells (n≥3). The duration of exposure to each test article concentration was 3 minutes. A positive control confirmed the sensitivity of the test system to hERG inhibition.

EphB2 = molecular target: T2, EphB2 (Homo sapiens, UniProt P29323); assay: KinaseProfiler kinase profiling; type: biochemical; settings: 10 μM, ATP near Km
T2 construct: purchased Millipore, Inc. (KinaseProfiler service)
Experimental: (§1) Compound 1 was tested for off-target kinase activity at a concentration of 10 μM by Millipore, Inc. in their KinaseProfiler™ service against all the kinases available in their full kinase panel. Compound 1 was run in duplicate at a concentration of ATP near the Km for each individual kinase according to Millipore's specifications. Data are reported as percent of control (POC) and are the average of the two replicates.

CDK2/cyclinE = molecular target: T3, CDK2/cyclinE (Homo sapiens, UniProt P24941); assay: KinaseProfiler kinase profiling; type: biochemical; settings: 10 μM, ATP near Km
T3 construct: purchased Millipore, Inc. (KinaseProfiler service)
Experimental: as §1

WNK2 = molecular target: T4, WNK2 (Homo sapiens, UniProt Q9Y3S1); assay: KinaseProfiler kinase profiling; type: biochemical; settings: 10 μM, ATP near Km
T4 construct: purchased Millipore, Inc. (KinaseProfiler service)
T4 sequence (Q9Y3S1 whole entry): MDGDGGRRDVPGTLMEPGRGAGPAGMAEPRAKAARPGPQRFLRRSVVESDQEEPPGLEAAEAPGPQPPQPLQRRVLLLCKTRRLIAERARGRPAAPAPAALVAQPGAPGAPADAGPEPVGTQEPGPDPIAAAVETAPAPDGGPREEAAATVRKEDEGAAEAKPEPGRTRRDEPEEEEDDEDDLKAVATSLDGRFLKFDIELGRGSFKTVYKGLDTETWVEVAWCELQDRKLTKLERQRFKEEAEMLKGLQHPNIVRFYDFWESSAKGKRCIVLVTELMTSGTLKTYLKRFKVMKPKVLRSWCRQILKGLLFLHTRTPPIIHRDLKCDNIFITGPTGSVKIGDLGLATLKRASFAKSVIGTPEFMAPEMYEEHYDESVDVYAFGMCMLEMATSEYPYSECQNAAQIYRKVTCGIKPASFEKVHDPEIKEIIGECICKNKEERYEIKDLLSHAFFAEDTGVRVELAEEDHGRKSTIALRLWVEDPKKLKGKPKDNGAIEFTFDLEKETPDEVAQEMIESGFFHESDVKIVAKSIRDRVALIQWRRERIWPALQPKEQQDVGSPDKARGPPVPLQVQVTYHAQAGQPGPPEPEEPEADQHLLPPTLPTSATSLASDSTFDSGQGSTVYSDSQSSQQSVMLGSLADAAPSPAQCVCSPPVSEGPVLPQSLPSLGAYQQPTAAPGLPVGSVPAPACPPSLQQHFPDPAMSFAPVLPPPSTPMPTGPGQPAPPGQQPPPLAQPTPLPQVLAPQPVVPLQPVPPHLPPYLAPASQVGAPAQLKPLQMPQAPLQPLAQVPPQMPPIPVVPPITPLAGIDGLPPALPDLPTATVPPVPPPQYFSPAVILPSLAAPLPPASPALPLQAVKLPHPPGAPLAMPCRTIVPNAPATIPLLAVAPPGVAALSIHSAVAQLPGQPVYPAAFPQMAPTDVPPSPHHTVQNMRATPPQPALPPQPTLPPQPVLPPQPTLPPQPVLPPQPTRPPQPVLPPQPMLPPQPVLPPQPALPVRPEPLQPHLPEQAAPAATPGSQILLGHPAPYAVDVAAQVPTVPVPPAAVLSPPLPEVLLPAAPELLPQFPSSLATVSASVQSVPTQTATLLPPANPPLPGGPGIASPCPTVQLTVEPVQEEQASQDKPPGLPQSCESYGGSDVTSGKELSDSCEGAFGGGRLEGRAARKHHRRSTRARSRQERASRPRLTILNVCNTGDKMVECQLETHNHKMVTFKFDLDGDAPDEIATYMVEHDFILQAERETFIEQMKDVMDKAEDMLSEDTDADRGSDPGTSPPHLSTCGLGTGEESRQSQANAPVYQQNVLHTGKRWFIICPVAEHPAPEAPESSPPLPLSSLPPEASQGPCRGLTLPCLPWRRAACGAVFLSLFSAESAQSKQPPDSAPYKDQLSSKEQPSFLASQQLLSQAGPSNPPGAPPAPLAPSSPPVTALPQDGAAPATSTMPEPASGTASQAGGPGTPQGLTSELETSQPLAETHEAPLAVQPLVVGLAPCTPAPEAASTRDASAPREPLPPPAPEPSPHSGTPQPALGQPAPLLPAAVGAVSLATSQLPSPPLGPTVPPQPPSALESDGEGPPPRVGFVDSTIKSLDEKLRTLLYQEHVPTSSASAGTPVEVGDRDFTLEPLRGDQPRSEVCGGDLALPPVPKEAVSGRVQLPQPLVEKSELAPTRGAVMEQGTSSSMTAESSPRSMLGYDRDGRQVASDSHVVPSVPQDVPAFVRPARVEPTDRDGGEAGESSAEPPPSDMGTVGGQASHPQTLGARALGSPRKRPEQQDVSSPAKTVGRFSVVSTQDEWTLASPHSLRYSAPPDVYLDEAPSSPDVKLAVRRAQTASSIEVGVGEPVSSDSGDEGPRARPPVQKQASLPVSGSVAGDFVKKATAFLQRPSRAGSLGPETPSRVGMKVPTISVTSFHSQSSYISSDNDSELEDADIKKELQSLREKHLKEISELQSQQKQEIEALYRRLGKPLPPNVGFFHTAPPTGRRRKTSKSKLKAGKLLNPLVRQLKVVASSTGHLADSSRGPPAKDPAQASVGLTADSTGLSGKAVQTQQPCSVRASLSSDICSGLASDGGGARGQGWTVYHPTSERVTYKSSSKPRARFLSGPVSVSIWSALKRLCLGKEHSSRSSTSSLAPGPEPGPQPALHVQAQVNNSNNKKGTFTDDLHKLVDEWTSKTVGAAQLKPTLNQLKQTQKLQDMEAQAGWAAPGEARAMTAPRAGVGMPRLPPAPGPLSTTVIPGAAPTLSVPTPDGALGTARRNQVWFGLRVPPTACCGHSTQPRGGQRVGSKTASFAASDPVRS
Experimental: as §1

GRK5 = molecular target: T5, GRK5 (Homo sapiens, UniProt P34947); assay: KinaseProfiler kinase profiling; type: biochemical; settings: 10 μM, ATP near Km
T5 construct: purchased Millipore, Inc. (KinaseProfiler service)
T5 sequence (P34947 whole entry): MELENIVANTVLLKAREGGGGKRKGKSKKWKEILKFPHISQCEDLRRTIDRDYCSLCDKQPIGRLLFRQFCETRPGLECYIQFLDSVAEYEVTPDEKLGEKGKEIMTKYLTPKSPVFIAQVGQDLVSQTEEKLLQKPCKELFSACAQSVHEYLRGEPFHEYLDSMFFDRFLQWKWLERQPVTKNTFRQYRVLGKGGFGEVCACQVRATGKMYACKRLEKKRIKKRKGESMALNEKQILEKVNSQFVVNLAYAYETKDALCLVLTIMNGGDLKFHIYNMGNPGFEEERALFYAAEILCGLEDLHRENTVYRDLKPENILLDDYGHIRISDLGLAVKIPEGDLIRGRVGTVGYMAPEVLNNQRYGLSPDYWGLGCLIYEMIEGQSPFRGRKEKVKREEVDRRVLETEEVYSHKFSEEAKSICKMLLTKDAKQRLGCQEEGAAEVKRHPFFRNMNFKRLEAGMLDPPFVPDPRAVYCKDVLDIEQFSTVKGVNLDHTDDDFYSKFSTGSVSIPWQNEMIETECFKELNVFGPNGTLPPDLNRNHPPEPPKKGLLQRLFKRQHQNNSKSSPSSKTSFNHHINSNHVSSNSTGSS
Experimental: as §1

Pim-2 = molecular target: T6, Pim-2 (Homo sapiens, UniProt Q9P1W9); assay: KinaseProfiler kinase profiling; type: biochemical; settings: 10 μM, ATP near Km
T6 construct: purchased Millipore, Inc. (KinaseProfiler service)
T6 sequence (Q9P1W9 whole entry): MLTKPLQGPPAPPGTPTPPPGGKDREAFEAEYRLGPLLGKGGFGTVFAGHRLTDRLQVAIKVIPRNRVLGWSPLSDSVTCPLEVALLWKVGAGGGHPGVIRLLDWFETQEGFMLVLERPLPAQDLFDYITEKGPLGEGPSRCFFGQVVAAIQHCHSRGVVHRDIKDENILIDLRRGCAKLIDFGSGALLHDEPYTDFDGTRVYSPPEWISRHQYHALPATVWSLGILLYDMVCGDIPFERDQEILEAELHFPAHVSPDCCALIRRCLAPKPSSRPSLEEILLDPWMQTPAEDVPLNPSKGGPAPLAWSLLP
Experimental: as §1

Fyn = molecular target: T7, Fyn (Homo sapiens, UniProt P06241); assay: KinaseProfiler kinase profiling; type: biochemical; settings: 10 μM, ATP near Km
T7 construct: purchased Millipore, Inc. (KinaseProfiler service)
T7 sequence (P06241 whole entry): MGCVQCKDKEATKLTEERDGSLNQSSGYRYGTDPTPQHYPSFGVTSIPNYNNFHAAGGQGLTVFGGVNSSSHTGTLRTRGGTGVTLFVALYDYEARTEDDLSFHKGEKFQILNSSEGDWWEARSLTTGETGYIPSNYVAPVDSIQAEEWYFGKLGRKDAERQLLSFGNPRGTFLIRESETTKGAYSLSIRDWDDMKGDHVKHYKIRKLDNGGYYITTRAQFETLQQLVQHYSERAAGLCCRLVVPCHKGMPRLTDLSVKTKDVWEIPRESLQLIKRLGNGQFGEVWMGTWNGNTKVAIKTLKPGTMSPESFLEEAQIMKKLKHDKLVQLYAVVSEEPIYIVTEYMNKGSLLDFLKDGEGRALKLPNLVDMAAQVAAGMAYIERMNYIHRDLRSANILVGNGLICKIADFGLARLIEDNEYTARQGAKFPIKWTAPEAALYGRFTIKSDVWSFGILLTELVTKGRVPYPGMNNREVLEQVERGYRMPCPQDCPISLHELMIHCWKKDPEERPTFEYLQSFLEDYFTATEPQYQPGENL
Experimental: as §1

[3] = IV clearance, 1 mg/kg IV, mouse; type: in vivo; settings: for in vivo/in vitro correction factor: microsomal CLh divided by IV CL; for clearance: plasma, 1 mg/kg IV
Experimental: In Table 1, the predicted human IV clearance values were calculated from compound concentration-versus-time data in plasma collected from pre-clinical species (mouse, rat, dog and monkey) following 1 mg/kg intravenous (IV) doses. Concentrations of compound in plasma were measured by LC-MS (liquid chromatography-mass spectrometry). AUCinf values (Area under the plasma concentration-time curve for a dosing interval from time 0 extrapolated to infinity) for individual Cp/t curves (concentration of the drug in plasma at any time t) were determined using linear-trapezoidal integration and first order extrapolation from terminal points of the Cp/t curves, and clearance (CL) was calculated using Dose/AUCinf.

Row | Plasma:Brain ratio [1] | Trough concentration [1] [µg/mL] | AUC [1] [ng·h/mL] | Cmax [1] [ng/mL] | Avg POC (EphB2) [POC] | Avg POC (CDK2/cyclinE) [POC] | Avg POC (WNK2) [POC] | Avg POC (GRK5) [POC] | Avg POC (Pim-2) [POC] | Avg POC (Fyn) [POC] | in vivo/in vitro correction factor [3] | clearance [3] [mL/min/kg] | SMILES | IC50 [2] [µM]
1 | 21 | 0.00134 | 2570 | 1060 | 98 | 102 | 92.5 | 100 | 117.5 | 96.5 | – | – | COCCN1C[C@@H](NC(=O)Nc2c(C)c(-c3cnc(C)nc3)nn2-c2ccccc2)[C@H](c2cccc(F)c2)C1 [Compound 1, 1-((3S,4R)-4-(3-fluorophenyl)-1-(2-methoxyethyl)pyrrolidin-3-yl)-3-(4-methyl-3-(2-methylpyrimidin-5-yl)-1-phenyl-1H-pyrazol-5-yl)urea] | 20
2 | 11 | 0.000446 | 925 | 420 | – | – | – | – | – | – | 1.36 | 42 | COCCN1C[C@@H](NC(=O)Nc2c(C)c(-c3cnc(C)nc3)nn2-c2ccccc2)[C@H](c2ccc(F)c(F)c2)C1 [Compound 2, 1-((3S,4R)-4-(3,4-difluorophenyl)-1-(2-methoxyethyl)pyrrolidin-3-yl)-3-(4-methyl-3-(2-methylpyrimidin-5-yl)-1-phenyl-1H-pyrazol-5-yl)urea] | 6.9
3 | – | 0.00044 | 1060 | 498 | – | – | – | – | – | – | 0.85 | 71 | COCCN1C[C@@H](NC(=O)Nc2c(C)c(-c3cnn(C)c3)nn2-c2ccccc2)[C@H](c2ccc(F)cc2)C1 [Compound 3, 1-(1′,4-dimethyl-1-phenyl-1H,1′H-[3,4′-bipyrazol]-5-yl)-3-((3S,4R)-4-(4-fluorophenyl)-1-(2-methoxyethyl)pyrrolidin-3-yl)urea] | –
